Laboratory results taken from PMC9785678, “Candidalysin Is the Hemolytic Factor of Candida albicans” (Toxins, 2022).

Legend:
red blood cells (RBCs) = assay: Hemolysis assay with synthetic peptides on purified RBCs; assay type: cell-based, human; settings: 37 °C; for hemolysis by the P7 derivative alone: 2 µM
Description: RBCs were purified from whole blood of healthy volunteers. Blood was collected in tubes containing EDTA-K3 as an anticoagulant (approximately 9 mL/tube). To separate RBCs from white blood cells (WBCs) and plasma, three washes were performed by centrifugation (2000× g for 10 min) and subsequent re-suspension to reach 9 mL. First, the RBCs were resuspended in Dulbecco′s Phosphate Buffered Saline (DPBS) + 2% heat inactivated fetal bovine serum, then in pure DPBS, and eventually in RPMI (for assays with live candida) or again DPBS (for assays with peptides). After each centrifugation step, care was taken to remove as many WBCs as possible from the central buffy layer. A hemocytometer (Auto Hematology Analyzer BC-5300 Vet (Mindray, Shenzhen, China)) was used to verify that the WBC count was negligible ([…]) and to determine the RBC concentration. This was then adjusted to 5 × 10^8 cells/mL, in the respective media or buffer.
Peptides were purchased from two different suppliers, namely Proteogenix (Strasbourg, France) and Peptide Protein Research Ltd. (Southampton, UK). Stock solutions were prepared in pure water at a concentration of 1.4 mM, then aliquoted and stored at −20 °C. […] Working solutions were then prepared in the relative buffer at the final concentration indicated for each assay.
To assess the hemolytic potential of C. albicans strains, RBCs and fungal cells were mixed in a 1:1 ratio (5 × 10^7 each, in a final volume of 600 µL) in a 2 mL plastic test tube (screw cap). Every condition was performed in duplicates (technical replicates) and with at least three different donors (biological replicates). Test tubes were then incubated horizontally at 50 rpms, 37 °C, for 24 h. To assess the hemolytic potential of peptides, 10^7 RBCs were incubated with the relevant peptide at the indicated final concentration in a total volume of 150 µL, for 1 h at 37 °C, in a 96-well PCR plate. After incubation, samples were centrifuged (2000× g for 3 min) and 100 µL of supernatant was transferred to a fresh 96-well plate to measure hemoglobin absorbance at 414 nm. Hemolysis was defined as the absorbance of the sample relative to the absorbance of the full lysis control sample (RBCs incubated with pure water), following subtraction of the absorbance of the vehicle control (RBCs incubated with media or buffer only).

[1] = test system: candidalysin-induced hemolysis of RBCs; assay: Protection of RBCs from candidalysin-induced lysis by purinergic receptor antagonist; assay type: cell-based, human; settings: candidalysin 16 µM, increasing concentrations of PPADS, 1 h, 37 °C
Description: Figure 5 The purinergic receptor antagonist pyridoxal-phosphate-6-azophenyl-2′,4′-disulfonic acid (PPADS) protects from candidalysin-induced hemolysis via a purinergic receptor-independent mechanism. (a) Purified RBCs were incubated with candidalysin (16 µM) and increasing concentrations of PPADS, for 1 h at 37 °C. Hemolysis was quantified by measuring the absorbance of sample’s supernatant at 414 nm, and plotted relative to the full lysis control sample (RBCs incubated with pure water and the same amount of PPADS), following subtraction of the relative vehicle control (containing the same amount of PPADS). […] Permeabilization was measured as kinetic changes in conductance of tethered lipid membranes. […]
To assess the hemolytic potential of C. albicans strains, RBCs and fungal cells were mixed in a 1:1 ratio (5 × 10^7 each, in a final volume of 600 µL) in a 2 mL plastic test tube (screw cap). […] After incubation, samples were centrifuged (2000× g for 3 min) and 100 µL of supernatant was transferred to a fresh 96-well plate to measure hemoglobin absorbance at 414 nm. Hemolysis was defined as the absorbance of the sample relative to the absorbance of the full lysis control sample (RBCs incubated with pure water), following subtraction of the absorbance of the vehicle control (RBCs incubated with media or buffer only).

[2] = Membrane permeabilization by candidalysin, tethered bilayer lipid membranes (conductance); settings: membranes without receptors, candidalysin 5, 10, 20 µM, 37 °C
Description: Figure 5 The purinergic receptor antagonist pyridoxal-phosphate-6-azophenyl-2′,4′-disulfonic acid (PPADS) protects from candidalysin-induced hemolysis via a purinergic receptor-independent mechanism. (a) Purified RBCs were incubated with candidalysin (16 µM) and increasing concentrations of PPADS, for 1 h at 37 °C. Hemolysis was quantified by measuring the absorbance of sample’s supernatant at 414 nm, and plotted relative to the full lysis control sample (RBCs incubated with pure water and the same amount of PPADS), following subtraction of the relative vehicle control (containing the same amount of PPADS). Each data point on the graph represents a different donor (average of 2 technical replicates). […] Permeabilization was measured as kinetic changes in conductance of tethered lipid membranes.
Tethered bilayer lipid membranes with 10% tethering lipids and 90% spacer lipids (T10 slides) were formed using the solvent exchange technique according to the manufacturer’s instructions (SDx Tethered Membranes Pty Ltd., Sydney, Australia). […] After rinsing 3× with 100 µL buffer, the conductance and capacitance of the membranes were measured for 20 min before injection of different concentrations of PPADS to the final concentrations in the individual channels as shown. […] Signals were measured using the tethaPod (SDx Tethered Membranes Pty Ltd., Sydney, Australia).

epithelial cells = settings: cited from earlier work
Text: Candidalysin is generated from the longer polyprotein Ece1, which is processed by the Golgi-located Kex2 protease into eight peptides with C-terminal lysine–arginine (KR) residues. It was subsequently shown that a second processing event occurs by another Golgi-located protease, Kex1 [5, 11] which produces mature candidalysin by removing the C-terminal arginine from P3 [5, 11]. Peptides deriving from a Kex2-only processing are secreted, albeit at lower levels than mature candidalysin [5, 11].

CC[C@H](C)[C@H](NC(=O)[C@H](CC(C)C)NC(=O)[C@H](CCC(N)=O)NC(=O)[C@@H]1CCCN1C(=O)[C@H](CC(C)C)NC(=O)[C@H](CCCNC(=N)N)NC(=O)[C@H](CCC(N)=O)NC(=O)[C@H](CC(C)C)NC(=O)[C@H](CC(C)C)NC(=O)[C@H](CCC(=O)O)NC(=O)[C@H](CC(=O)O)NC(=O)[C@H](CC(C)C)NC(=O)[C@H](Cc1ccccc1)NC(=O)[C@H](CC(=O)O)NC(=O)[C@H](CCC(=O)O)NC(=O)[C@H](CC(C)C)NC(=O)CNC(=O)[C@@H](N)CC(=O)O)C(=O)N[C@H](C(=O)N[C@@H](CCCNC(=N)N)C(=O)N[C@@H](CO)C(=O)N[C@@H](C)C(=O)N[C@@H](CCC(=O)O)C(=O)N[C@@H](CO)C(=O)N[C@@H](C)C(=O)N[C@@H](CC(C)C)C(=O)N[C@@H](CCCCN)C(=O)N[C@@H](CC(=O)O)C(=O)N[C@@H](CO)C(=O)N[C@@H](CCC(N)=O)C(=O)N1CCC[C@H]1C(=O)N[C@H](C(=O)N[C@@H](CCCCN)C(=O)O)C(C)C)[C@@H](C)O [P7K]
hemolysis by the P7 derivative alone (red blood cells (RBCs); 1 h): no effect

CC[C@H](C)[C@H](NC(=O)[C@H](CC(C)C)NC(=O)[C@H](CCC(N)=O)NC(=O)[C@@H]1CCCN1C(=O)[C@H](CC(C)C)NC(=O)[C@H](CCCNC(=N)N)NC(=O)[C@H](CCC(N)=O)NC(=O)[C@H](CC(C)C)NC(=O)[C@H](CC(C)C)NC(=O)[C@H](CCC(=O)O)NC(=O)[C@H](CC(=O)O)NC(=O)[C@H](CC(C)C)NC(=O)[C@H](Cc1ccccc1)NC(=O)[C@H](CC(=O)O)NC(=O)[C@H](CCC(=O)O)NC(=O)[C@H](CC(C)C)NC(=O)CNC(=O)[C@@H](N)CC(=O)O)C(=O)N[C@H](C(=O)O)[C@@H](C)O [P7a]
hemolysis by the P7 derivative alone (red blood cells (RBCs); 1 h): low-level cytolytic activity

Cc1nc(N=Nc2ccc(S(=O)(=O)O)cc2S(=O)(=O)O)c(COP(=O)(O)O)c(C=O)c1O [PPADS, pyridoxal-phosphate-6-azophenyl-2′,4′-disulfonic acid]
effect on candidalysin-induced hemolysis [1]: reduced | effect on permeabilization of artificial membranes by candidalysin [2]: able to inhibit permeabilization

candidalysin
reduction of hemolytic potential in the presence of EDTA (red blood cells (RBCs); 100 mM EDTA, peptide 9 µM (Proteogenix), 1 h): 4.2 fold | hemolytic activity compared with P3 (red blood cells (RBCs); all tested concentrations (1–8 µM), time course): clearly less hemolytic than P3 | effect of pH on lysis efficiency (red blood cells (RBCs); pH 5 to 8, buffered HBSS, peptide 9 µM, 1 h): Only a minimal difference | effect of adding excess Mg2+ ions (MgCl2) to cells pre-treated with EDTA on cytotoxicity (red blood cells (RBCs); peptide 9 µM, EDTA then MgCl2 up to 100 mM, 1 h): restored the cytotoxicity | peptide concentration at and above which almost full RBC lysis was observed at the earliest time point (red blood cells (RBCs); time course, 5 min incubation, range 1–8 µM, mean of 4 donors): ≥ 4 µM | cytolytic activity against epithelial cells (epithelial cells): have cytolytic activity
